Test results as given in US20250312349A1, “COMPOSITION AND METHODS OF TREATING INTRACELLULAR PATHOGEN INFECTION” (UNIVERSITY HOSPITALS CLEVELAND MEDICAL CENTER, priority 2024, published 2025).

Experiments:
[1] = Brain penetration and tolerability of Saracatinib; assay type: in vivo; conditions: mice, 10 or 15 mg kg^-1 twice per day
[2] = system: ME49 T. gondii; assay: Ocular and cerebral toxoplasmosis in Becn1+/+ and Becn1+/- mice; assay type: in vivo; conditions: 10 mg kg-1, 2 weeks
[3] = system: PTEN; assay: Confocal microscopy of PTEN and GRA7 around parasites in CHO cells; assay type: cell-based, Chinese Hamster; conditions: RFP-T. gondii
Procedure: Mammalian cells were infected with RFP-T. gondii (RH) and fixed with 4% paraformaldehyde. Cells were stained with antibodies against LC3 (MBL International, Woburn, MA), LAMP1 (DSHB, Iowa City, IA), or GRA7 (gift from John Boothroyd, Stanford University, Stanford, CA) followed by a fluorescently conjugated secondary antibodies (Jackson ImmunoResearch Laboratories, West Grove, PA). LC3 and LAMP1 were evaluated for accumulation at 5- and 7 hours post-infection, respectively. Cells were stained with antibodies against PTEN (Santa Cruz Biotechnology, Dallas, TX) or anti-phospho S473 Akt (Novus, Centennial, CO). Frozen brain sections were stained with antibodies against PTEN (Novus, Centennial, CO), phospho S473 Akt, SAG-1 (Invitrogen, Waltham, MA) or T. gondii (Biogenex, Fremont, CA). Parasites were evaluated blindly in multiple random fields of view and 100 parasites were examined per group. In-out assays were performed as described using RFP-T gondii, anti-SAG-1 antibody (Invitrogen, Waltham, MA) and an Alexa Fluor 488-conjugated secondary antibody. Olympus FV1200 confocal microscope (Evident/Olympus, Waltham, MA) equipped with UPlanSApa 60× and 100× 1.45NA objectives was used to evaluate the slides.

[4] = system: phospho-S473 Akt and PTEN around tachyzoites; assay: Immunofluorescence of brain sections from infected mice treated for four days; assay type: in vivo, C57BL/6 mice; conditions: 10 mg kg^-1 twice daily for 4 days
Excerpt: Scale bar, 50 m. […] Scale bar, 50 m. […] (G). […] Results are representative of 2 independent experiments. […] Scale bar, 10 m.
C57BL/6 mice (Jackson Laboratories, Bar Harbor, ME) or Becn 1^+/− (C57BL/6 background; gift from Beth Levine, University of Texas Southwestern, Dallas, TX) were bred at the Animal Resource Center at Case Western Reserve University. Female mice between the ages of 6 to 8 weeks old were infected with 10 cysts of the ME49 T. gondii for four weeks. In certain experiments, mice were euthanized at 4 weeks to evaluate severity of ocular and cerebral toxoplasmosis.

[5] = system: T. gondii; assay: In vitro infection of mammalian cells with T. gondii tachyzoites, counted by light microscopy; assay type: cell-based, Toxoplasma gondii
Procedure: Chinese Hamster Ovary (CHO; a gift from Cathleen Carlin, Case Western Reserve University), human retinal pigment epithelial (RPE) cells (ARPE-19; American Type Culture Collection, ATCC, Manassas, VA), and mouse endothelial […]) transduced with Src shRNA or control encoding lentiviral vectors were cultured in complete media. Mouse brain endothelial cells expressing WT or DN EGFR were isolated as described. Endothelial cells were cultured in medium containing Endothelial Cell Growth Supplement (ECGS; Sigma-Aldrich, St Louis, MO). Mammalian cells were infected with tachyzoites of the RH or PTG stains of T. gondii; RH strain was used unless otherwise indicated. Cells were fixed at 2 hours or 24 hours followed by staining using Hema 3 Manual Staining System (Fisherbrand, Hampton, NH). At least 100 to 200 cells per monolayer were counted by examining a minimum of 5 random areas per monolayer. The percentage of infected cells, tachyzoites and vacuoles per 100 cells, and tachyzoites per vacuole were counted using light microscopy. Three independent experiments were performed. Saracatinib, Gefitinib (LC Laboratories, Woburn, MA) and lysosomal inhibitors leupeptin and pepstatin (10 μM; Millipore Sigma, Burlington, MA) were used in specified experiments. Each cell monolayer was generated and infected independently.

[6] = system: CHO cells; assay: MTT assay of potential cell toxicity, CHO cells; assay type: cell-based, Chinese Hamster; conditions: 1 μM, 24 hrs
Procedure: FIG. 9 illustrates graphs showing the assessment of potential cell toxicity of Saracatinib. CHO cells and retinal pigment epithelial cells (RPE) were treated with various concentrations of Saracatinib (1 nM-1000 μM) followed by MTT assay 24 hrs. after incubation with Saracatinib. The data are pooled from duplicate or triplicate independent samples obtained in 3 different experiments. […] Data are shown as mean±SEM. Significance was determined by comparing all groups to the control using one-way ANOVA with Holm-Sidak multiple comparison test (*p<0.05). (PDF)

[7] = system: EGS T. gondii cysts; assay: Parasite cysts in CHO cells infected with EGS T. gondii; assay type: cell-based, Toxoplasma gondii; conditions: Saracatinib 1 μM, 4 days
Excerpt: We infected CHO cells with EGS T. gondii, a strain of the parasite that spontaneously form cysts in vitro.

[8] = system: PI3K; assay: Immunoblot of phospho-Y199 PI3K in T. gondii-infected CHO cells; assay type: cell-based, Chinese Hamster; conditions: lysates at 2 h
Procedure: (§1) Membranes were probed with antibodies against Src, phospho-Y416 Src, Akt, phospho-S473 Akt, PTEN, phospho-[…] PTEN, PI3K, phospho-Y458/Y199 PI3K, ULK1, EGFR, HA tag (all from Cell Signaling, Danvers, MA), phospho-Y240 PTEN (Sigma) and Actin (Santa Cruz Biotechnologies) followed by incubation with secondary antibodies (Cell Signaling and Santa Cruz Biotechnologies). Three independent experiments were performed.

[9] = system: PTEN; assay: Immunoblot of PTEN phosphorylation in T. gondii-infected CHO cells; assay type: cell-based, Chinese Hamster; conditions: lysates at 2 h
Procedure: as §1

[10] = system: Lek and Fyn in T cells; conditions: cited from earlier work
[11] = system: retinal pigment epithelial cells (RPE); assay: MTT assay of potential cell toxicity, RPE cells; assay type: cell-based, human; conditions: 1 μM, 24 hrs
Procedure: Data are shown as mean±SEM. […] Three independent experiments were performed.

[12] = system: ME49 T. gondii; assay: Suboptimal dose combination in mice with ocular and cerebral toxoplasmosis; assay type: in vivo, C57BL/6 mice; conditions: 2.5 mg/Kg once a day, 14 days
Procedure: C57BL/6 mice that had been infected with tissue cysts of ME49 T. gondii for 4 weeks (at a time when animals have developed ocular and cerebral toxoplasmosis), were treated with suboptimal dose of Saracatinib (2.5 mg/Kg once a day) with or without suboptimal dose of Pyrimethamine (4.2 mg/Kg once a day) for 14 days.

[13] = CHO cells transfected with CA Akt, 1 μM, 24 h
[14] = CHO cells transfected with WT Akt, 1 μM, 24 h
[15] = EGFR+ CHO cells, RH T. gondii, indicated concentrations, 24 h

CN1CCN(CCOc2cc(OC3CCOCC3)c3c(Nc4c(Cl)ccc5c4OCO5)ncnc3c2)CC1 [Saracatinib, N-(5-chloro-1,3-benzodioxol-4-yl)-7-(2-(4-methylpiperazin-1-yl)ethoxy)-5-(tetrahydro-2H-pyran-4-yloxy)quinazolin-4-amine]
predicted brain concentrations [1]: ~0.2 µM | ocular and cerebral histopathology ([2]; Becn 1+/+ mice): improvement | parasite load ([2]; Becn 1+/+ mice): improvement | response of histopathology and parasite loads ([2]; autophagy-deficient Becn 1+/- mice): did not respond | association of PTEN to the PVM [3]: co-expression of PTEN and GRA7 | phospho-S473 Akt accumulation around tachyzoites [4]: markedly reduced | recruitment of PTEN around tachyzoites [4]: induced recruitment | toxoplasmacidal activity ([5]; 0.3 μM): significantly reduced | toxoplasmacidal activity ([5]; 1 μM, infected host cells): kills T. gondii | toxoplasmacidal activity ([5]; CHO cells infected with type I (RH) or Type II (PTG) strains, 1 μM, 2 h and 24 h): toxoplasmacidal activity | effects on infected cells and tachyzoites per 100 cells compared with Gefitinib ([5]; CHO cells stably transfected to express EGFR, 24 h): more striking than the effects of Gefitinib | number of tachyzoites per 100 cells [5, 13]: no reduction | percentage of infection [5, 13]: no reduction | number of tachyzoites per 100 cells [5, 14]: reduced | percentage of infected cells [5, 14]: reduced | parasite replication (tachyzoites per vacuole) ([5]; CHO cells, 1 μM, 24 hours): did not affect | killing of T. gondii in cells made deficient in PTEN ([5]; CHO cells, PTEN siRNA, 24 h): no longer able to kill T. gondii | percentage of infected cells [5, 15]: dose-dependent significant decrease | tachyzoites per 100 cells [5, 15]: dose-dependent significant decrease | anti-T. gondii activity in ULK1-deficient cells ([5]; ULK1 siRNA, CHO and brain endothelial cells, 24 h): unable to exhibit anti-T. gondii activity | anti-T. gondii activity in presence of Leupeptin and Pepstatin A ([5]; lysosomal inhibitors 10 μM added post-infection): ablated | toxoplasmacidal activity in cells made deficient in Src ([5]; mHEVc cells transduced with Src shRNA, 1 μM): no toxoplasmacidal activity was detected | cell toxicity (MTT) [6]: non-toxic | morphology of bradyzoites in remaining cysts [7]: altered morphology | reduction in the number of cysts [7]: ~60% | Y199 phosphorylation of PI3K [8]: inhibited | PTEN phosphorylation at Tyr240, Ser380 and Thr382/383 [9]: reduced | activity of Lek and Fyn in T cells [10]: did not inhibit | T cell expansion and IFN-γ production following antigenic stimulation ([10]; low doses, previously primed T cells, in vitro and in vivo): increased T cell expansion and IFN-γ production | cell toxicity (MTT) [11]: non-toxic | load of tissue cysts [12]: neither the low dose Saracatinib nor the low dose Pyrimethamine decreased
